Test results published in PubChem BioAssay (NCI).
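Where inhibition never reached the appropriate level, the endpoint shown equals the highest concentration tested. Otherwise, values were interpolated linearly from a five-concentration, 48-hour dose response in 96-well plates. TGI: concentration producing complete growth inhibition.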

Experiments:
Assay in all cases: DTP human tumour cell line panel, 48 h
UO-31 renal = tested on: UO-31 renal
SF-539 CNS = tested on: SF-539 CNS
786-0 renal = tested on: 786-0 renal
TK-10 renal = tested on: TK-10 renal
IGROV1 ovarian = tested on: IGROV1 ovarian
MDA-MB-231 breast = tested on: MDA-MB-231 breast
HT29 colon = tested on: HT29 colon
U251 CNS = tested on: U251 CNS
MALME-3M melanoma = tested on: MALME-3M melanoma
MDA-MB-435 = tested on: MDA-MB-435
HL-60(TB) leukemia = tested on: HL-60(TB) leukemia
MOLT-4 leukemia = tested on: MOLT-4 leukemia
OVCAR-5 ovarian = tested on: OVCAR-5 ovarian
UACC-257 melanoma = tested on: UACC-257 melanoma
M14 melanoma = tested on: M14 melanoma
MDA-N = tested on: MDA-N
SK-OV-3 ovarian = tested on: SK-OV-3 ovarian
DU-145 prostate = tested on: DU-145 prostate
SNB-19 CNS = tested on: SNB-19 CNS
NCI-H23 lung = tested on: NCI-H23 lung
PC-3 prostate = tested on: PC-3 prostate
NCI/ADR-RES ovarian = tested on: NCI/ADR-RES ovarian
BT-549 breast = tested on: BT-549 breast
OVCAR-8 ovarian = tested on: OVCAR-8 ovarian
A549 NSCLC = tested on: A549 NSCLC
SK-MEL-5 melanoma = tested on: SK-MEL-5 melanoma
KM12 colon = tested on: KM12 colon
OVCAR-4 ovarian = tested on: OVCAR-4 ovarian
HOP-92 NSCLC = tested on: HOP-92 NSCLC
SR leukemia = tested on: SR leukemia
NCI-H226 lung = tested on: NCI-H226 lung
LOX IMVI melanoma = tested on: LOX IMVI melanoma
MCF7 breast = tested on: MCF7 breast
COLO 205 colon = tested on: COLO 205 colon
HCC-2998 colon = tested on: HCC-2998 colon
SN12C renal = tested on: SN12C renal
HCT-15 colon = tested on: HCT-15 colon
RPMI-8226 leukemia = tested on: RPMI-8226 leukemia
NCI-H460 lung = tested on: NCI-H460 lung
NCI-H522 lung = tested on: NCI-H522 lung
SK-MEL-2 melanoma = tested on: SK-MEL-2 melanoma
RXF 393 renal = tested on: RXF 393 renal
SK-MEL-28 melanoma = tested on: SK-MEL-28 melanoma
OVCAR-3 ovarian = tested on: OVCAR-3 ovarian
SW-620 colon = tested on: SW-620 colon
SF-295 CNS = tested on: SF-295 CNS
HOP-62 NSCLC = tested on: HOP-62 NSCLC
EKVX NSCLC = tested on: EKVX NSCLC
SF-268 CNS = tested on: SF-268 CNS
CCRF-CEM leukemia = tested on: CCRF-CEM leukemia
T-47D breast = tested on: T-47D breast
K-562 leukemia = tested on: K-562 leukemia
SNB-75 CNS = tested on: SNB-75 CNS
CAKI-1 renal = tested on: CAKI-1 renal
HCT-116 colon = tested on: HCT-116 colon
A498 renal = tested on: A498 renal
HS 578T breast = tested on: HS 578T breast
ACHN renal = tested on: ACHN renal
UACC-62 melanoma = tested on: UACC-62 melanoma

With `Cc1cc2oc(C)c(S(=O)(=O)NC(=O)Nc3ccc(Cl)cc3)c(=O)c2c(=O)o1` the TGI (UO-31 renal) was > 100 µM, the TGI (SF-539 CNS) was > 100 µM and the TGI (786-0 renal) was > 100 µM. The TGI (TK-10 renal) was > 100 µM, the TGI (IGROV1 ovarian) was > 100 µM and the TGI (MDA-MB-231 breast) was > 100 µM. The TGI (HT29 colon) was > 100 µM, the TGI (U251 CNS) was > 100 µM and the TGI (MALME-3M melanoma) was > 100 µM. The TGI (MDA-MB-435) was > 100 µM, the TGI (HL-60(TB) leukemia) was > 100 µM and the TGI (MOLT-4 leukemia) was > 100 µM. The TGI (OVCAR-5 ovarian) was > 100 µM, the TGI (UACC-257 melanoma) was > 100 µM and the TGI (M14 melanoma) was > 100 µM. The TGI (MDA-N) was > 100 µM, the TGI (SK-OV-3 ovarian) was > 100 µM and the TGI (DU-145 prostate) was > 100 µM. The TGI (SNB-19 CNS) was > 100 µM, the TGI (NCI-H23 lung) was > 100 µM and the TGI (PC-3 prostate) was > 100 µM. For the same compound, the TGI (NCI/ADR-RES ovarian) was > 100 µM, the TGI (BT-549 breast) was > 100 µM and the TGI (OVCAR-8 ovarian) was > 100 µM. The TGI (A549 NSCLC) was > 100 µM, the TGI (SK-MEL-5 melanoma) was > 100 µM and the TGI (KM12 colon) was > 100 µM. The TGI (OVCAR-4 ovarian) was > 100 µM, the TGI (HOP-92 NSCLC) was > 100 µM and the TGI (SR leukemia) was > 100 µM. The TGI (NCI-H226 lung) was > 100 µM, the TGI (LOX IMVI melanoma) was > 100 µM and the TGI (MCF7 breast) was > 100 µM. For the same compound, the TGI (COLO 205 colon) was > 100 µM, the TGI (HCC-2998 colon) was > 100 µM and the TGI (SN12C renal) was > 100 µM. The TGI (HCT-15 colon) was > 100 µM, the TGI (RPMI-8226 leukemia) was > 100 µM and the TGI (NCI-H460 lung) was > 100 µM. The TGI (NCI-H522 lung) was > 100 µM, the TGI (SK-MEL-2 melanoma) was > 100 µM and the TGI (RXF 393 renal) was > 100 µM. The TGI (SK-MEL-28 melanoma) was > 100 µM, the TGI (OVCAR-3 ovarian) was > 100 µM and the TGI (SW-620 colon) was > 100 µM. For the same compound, the TGI (SF-295 CNS) was > 100 µM, the TGI (HOP-62 NSCLC) was > 100 µM and the TGI (EKVX NSCLC) was > 100 µM. For the same compound, the TGI (SF-268 CNS) was > 100 µM, the TGI (CCRF-CEM leukemia) was > 100 µM and the TGI (T-47D breast) was > 100 µM. The TGI (K-562 leukemia) was > 100 µM, the TGI (SNB-75 CNS) was > 100 µM and the TGI (CAKI-1 renal) was > 100 µM. For the same compound, the TGI (HCT-116 colon) was > 100 µM, the TGI (A498 renal) was > 100 µM and the TGI (HS 578T breast) was > 100 µM. The TGI (ACHN renal) was > 100 µM and the TGI (UACC-62 melanoma) was > 100 µM.

`Cc1cc(N(CCC#N)CCC#N)ccc1/C=C1\SC(=S)NC1=O` was tested, and the TGI (UO-31 renal) was > 100 µM, the TGI (SF-539 CNS) was > 100 µM and the TGI (786-0 renal) was > 100 µM. For the same compound, the TGI (TK-10 renal) was > 100 µM, the TGI (IGROV1 ovarian) was > 100 µM and the TGI (MDA-MB-231 breast) was > 100 µM. For the same compound, the TGI (HT29 colon) was > 100 µM, the TGI (U251 CNS) was > 100 µM and the TGI (MALME-3M melanoma) was > 100 µM. For the same compound, the TGI (MDA-MB-435) was > 100 µM, the TGI (HL-60(TB) leukemia) was > 100 µM and the TGI (MOLT-4 leukemia) was > 100 µM. For the same compound, the TGI (OVCAR-5 ovarian) was > 100 µM, the TGI (UACC-257 melanoma) was > 100 µM and the TGI (M14 melanoma) was > 100 µM. For the same compound, the TGI (MDA-N) was > 100 µM, the TGI (SK-OV-3 ovarian) was > 100 µM and the TGI (DU-145 prostate) was > 100 µM. The TGI (SNB-19 CNS) was > 100 µM, the TGI (NCI-H23 lung) was > 100 µM and the TGI (PC-3 prostate) was > 100 µM. For the same compound, the TGI (NCI/ADR-RES ovarian) was > 100 µM, the TGI (BT-549 breast) was > 100 µM and the TGI (OVCAR-8 ovarian) was > 100 µM. For the same compound, the TGI (A549 NSCLC) was > 100 µM, the TGI (SK-MEL-5 melanoma) was > 100 µM and the TGI (KM12 colon) was > 100 µM. The TGI (OVCAR-4 ovarian) was > 100 µM, the TGI (HOP-92 NSCLC) was > 100 µM and the TGI (SR leukemia) was > 100 µM. The TGI (NCI-H226 lung) was > 100 µM, the TGI (LOX IMVI melanoma) was > 100 µM and the TGI (MCF7 breast) was > 100 µM. The TGI (COLO 205 colon) was > 100 µM, the TGI (HCC-2998 colon) was > 100 µM and the TGI (SN12C renal) was > 100 µM. The TGI (HCT-15 colon) was > 100 µM, the TGI (RPMI-8226 leukemia) was > 100 µM and the TGI (NCI-H460 lung) was > 100 µM. For the same compound, the TGI (NCI-H522 lung) was > 100 µM, the TGI (SK-MEL-2 melanoma) was > 100 µM and the TGI (RXF 393 renal) was 99.8 µM. The TGI (SK-MEL-28 melanoma) was > 100 µM, the TGI (OVCAR-3 ovarian) was > 100 µM and the TGI (SW-620 colon) was > 100 µM. The TGI (SF-295 CNS) was > 100 µM, the TGI (HOP-62 NSCLC) was > 100 µM and the TGI (EKVX NSCLC) was > 100 µM. For the same compound, the TGI (SF-268 CNS) was > 100 µM, the TGI (CCRF-CEM leukemia) was > 100 µM and the TGI (T-47D breast) was > 100 µM. For the same compound, the TGI (K-562 leukemia) was > 100 µM, the TGI (SNB-75 CNS) was 93.6 µM and the TGI (CAKI-1 renal) was > 100 µM. The TGI (HCT-116 colon) was > 100 µM, the TGI (A498 renal) was > 100 µM and the TGI (HS 578T breast) was 85 µM. For the same compound, the TGI (ACHN renal) was > 100 µM and the TGI (UACC-62 melanoma) was > 100 µM.
